Data published in patent US4604380A, “C-23-substituted mycaminosyltylonolide compounds, pharmaceutical compositions and methods of use” (Eli Lilly and Company, priority 1985, dated 1986).
≈ marks a conversion by molar mass, not a printed value. Where “and” joins values, the source holds several entries; their conditions need not be identical. Equal entries are not always repeated. Where two headings read alike, the source gives them in different places.

Experiments:
[1] = test system: Staphylococcus aureus; experiment: ED50 vs. Staphylococcus aureus experimental infection in mice (Table V); type: in vivo; details: sc, subcutaneous, two doses, dose protecting 50% of animals, read-out: ED50 Subcutaneous
Procedure: (§1) Certain formula 1a compounds have also shown in vivo antimicrobial activity against experimental bacterial infections. When two doses of test compound were administered to mice in experimental infections, the activity observed was measured as an ED50 value [effective dose in mg/kg to protect 50% of the test animals: see Warren Wick, et al., J. Bacteriol. 81, 233-235 (1961)].

[2] = test system: Pasteurella multocida; experiment: Activity in Pasteurella multocida-infected one-day-old chicks (Table VIII); type: in vivo; details: subcutaneous 30 mg/kg × 2, 1 and 4 hours post-challenge, all non-medicated chicks died within 24 hours
Procedure: Table VIII summarizes the results of tests in which illustrative compounds were evaluated against a Pasteurella infection in one-day-old chicks. The compounds were administered parenterally after challenge of the chicks with Pasteurella multocida (0.1 mL of a 10^-4 dilution of a twenty-hour tryptose broth culture of an avian P. multocida given subcutaneously). In these tests, all non-medicated infected chicks died within 24 hours of Pasteurella challenge. In the tests summarized in Table VIII, the compounds were administered by subcutaneous injection at a dosage of 30 mg/kg, 1 and 4 hours post-challenge of the chicks with P. multocida.

[3] = test system: Streptococcus pneumoniae Park I; experiment: microbe, parasite or virus in culture; type: cell-based; details: Streptococcus pneumoniae
Procedure: (§2) The MIC's s in Table III were determined by standard agar-dilution assays. The MIC's in Table IV were obtained using a conventional broth-dilution microtiter test.

[4] = test system: Staphylococcus aureus X1.1; experiment: MIC, standard agar-dilution assay (Table III); type: cell-based
Procedure: as §2

[5] = test system: Staphylococcus aureus X400; experiment: MIC, standard agar-dilution assay (Table III); type: cell-based
Procedure: as §2

[6] = test system: Staphylococcus epidermidis 222; experiment: MIC, standard agar-dilution assay (Table III); type: cell-based
Procedure: as §2

[7] = test system: Haemophilus influenzae C.L.; experiment: MIC, standard agar-dilution assay (Table III); type: cell-based
Procedure: as §2

[8] = test system: Staphylococcus aureus V41; experiment: MIC, standard agar-dilution assay (Table III); type: cell-based; details: Staphylococcus aureus V41, penicillin-resistant strain
Procedure: as §2

[9] = test system: Streptococcus Group D X66; experiment: MIC, standard agar-dilution assay (Table III); type: cell-based
Procedure: as §2

[10] = test system: Streptococcus pyogenes C203; experiment: MIC, standard agar-dilution assay (Table III); type: cell-based
Procedure: as §2

[11] = test system: Staphylococcus epidermidis EPI1; experiment: MIC, standard agar-dilution assay (Table III); type: cell-based; details: Staphylococcus epidermidis, EPI1
Procedure: as §2

[12] = test system: Staphylococcus aureus S13E; experiment: MIC, standard agar-dilution assay (Table III); type: cell-based
Procedure: as §2

[13] = test system: Streptococcus Group D 2041; experiment: MIC, standard agar-dilution assay (Table III); type: cell-based; details: GROUPD2041
Procedure: as §2

[14] = test system: Haemophilus influenzae 76; experiment: MIC, standard agar-dilution assay (Table III); type: cell-based
Procedure: as §2

[15] = test system: Streptococcus pyogenes; experiment: ED50 vs Streptococcus pyogenes experimental infection in mice (Table VI); type: in vivo; details: two doses, several values = results from more than one test
Procedure: as §1

[16] = test system: Streptococcous pneumoniae; experiment: ED50 vs. Streptococcous pneumoniae experimental infection in mice (Table VII); type: in vivo; details: Mus musculus, sc, subcutaneous, two doses, read-out: ED50 Subcutaneous
Procedure: as §1

[17] = test system: Pasteurella multocida 60A; experiment: MIC, conventional broth-dilution microtiter test (Table IV); type: cell-based
Procedure: as §2

[18] = test system: Pasteurella hemolytica 23C; experiment: as above; type: cell-based; details: broth-dilution microtiter; Pasteurella hemolytica 23C; read-out: MIC
Procedure: as §2

[19] = test system: Bordetella bronchisepticum 95B; experiment: as above; type: cell-based
Procedure: as §2

[20] = test system: Pasteurella multocida 17E; experiment: as above; type: cell-based
Procedure: as §2

[21] = test system: Mycoplasma gallisepticum 36H; experiment: as above; type: cell-based; details: Mycoplasmoides gallisepticum
Procedure: as §2

[22] = test system: Mycoplasma gallisepticum 15E; experiment: as above; type: cell-based; details: Mycoplasmoides gallisepticum
Procedure: as §2

[23] = test system: Mycoplasma hyorhinis 29E; experiment: as above; type: cell-based; details: broth-dilution microtiter; Mycoplasma hyorhinis 29E; read-out: MIC
Procedure: as §2

[24] = test system: Mycoplasma synoviae 40A; experiment: as above; type: cell-based; details: Mycoplasmopsis synoviae, 40A
Procedure: as §2

[25] = test system: Streptococcus sp. 19F; experiment: as above; type: cell-based
Procedure: as §2

[26] = test system: Pasteurella multocida 68C; experiment: as above; type: cell-based; details: broth-dilution microtiter; Pasteurella multocida 68C; read-out: MIC
Procedure: as §2

[27] = test system: Pasteurella multocida 22A; experiment: as above; type: cell-based; details: broth-dilution microtiter; Pasteurella multocida 22A; read-out: MIC
Procedure: as §2

[28] = test system: Mycoplasma hyopneumoniae S5972; experiment: as above; type: cell-based; details: Mesomycoplasma hyopneumoniae
Procedure: as §2

[29] = test system: Mycoplasma gallisepticum 29C; experiment: as above; type: cell-based; details: Mycoplasmoides gallisepticum, 29C
Procedure: as §2

[30] = test system: Pasteurella multocida 40G; experiment: as above; type: cell-based; details: broth-dilution microtiter; Pasteurella multocida 40G; read-out: MIC
Procedure: as §2

[31] = test system: Pasteurella hemolytica 22C; experiment: as above; type: cell-based
Procedure: as §2

[32] = test system: Pasteurella hemolytica 41D; experiment: as above; type: cell-based; details: broth-dilution microtiter; Pasteurella hemolytica 41D; read-out: MIC
Procedure: as §2

[33] = test system: Staphylococcus aureus 19C; experiment: as above; type: cell-based
Procedure: as §2

| SMILES | ED50 [1] | Number of Deaths/Number Treated [2] | MIC [3] | MIC [4] | MIC [8] | MIC [9] | MIC [11] | MIC [12] | MIC [13] | ED50 ([15]; po, read-out: ED50 Oral) | ED50 [16] | MIC [18] | MIC [19] | MIC [23] | MIC [24] | MIC [25] | MIC [26] | MIC [27] | MIC [29] | MIC [30] | also measured |
| --- | --- | --- | --- | --- | --- | --- | --- | --- | --- | --- | --- | --- | --- | --- | --- | --- | --- | --- | --- | --- | --- |
| CCC1OC(=O)CC(O)C(C)C(OC2OC(C)C(O)C(N(C)C)C2O)C(CC=O)CC(C)C(=O)C=CC(C)=CC1CN1CCCC2CCCCC21 (centres unmarked) [Compound 20, 23-deoxy-23-(decahydroquinolin-1-yl)-OMT] | 10 mg/kg | 6/10 and 8/10 | 0.03 µg/mL (≈ 0.0417 µM) | 0.25 µg/mL (≈ 0.348 µM) | 0.25 µg/mL (≈ 0.348 µM) | 0.25 µg/mL (≈ 0.348 µM) | 0.25 µg/mL (≈ 0.348 µM) | 0.25 µg/mL (≈ 0.348 µM) | 0.25 µg/mL (≈ 0.348 µM) | 77 mg/kg | 5 mg/kg | 0.78 µg/mL (≈ 1.08 µM) | 6.25 µg/mL (≈ 8.69 µM) | 0.39 µg/mL (≈ 0.542 µM) | < 0.048 µg/mL | < 0.048 µg/mL | 0.78 µg/mL (≈ 1.08 µM) | 0.78 µg/mL (≈ 1.08 µM) | > 0.048 µg/mL | 0.39 µg/mL (≈ 0.542 µM) | MIC ([5]; agar dilution, Staphylococcus aureus X400, methicillin-resistant strain, read-out: MIC): 0.5 µg/mL (≈ 0.695 µM); MIC ([6]; agar dilution, Staphylococcus epidermidis 222, read-out: MIC): 0.125 µg/mL (≈ 0.174 µM); MIC ([7]; agar dilution, Haemophilus influenzae C.L., ampicillin-sensitive strain, read-out: MIC): 1 µg/mL (≈ 1.39 µM); MIC ([10]; agar dilution, Streptococcus pyogenes C203, read-out: MIC): 0.125 µg/mL (≈ 0.174 µM); MIC ([14]; agar dilution, Haemophilus influenzae 76, ampicillin-resistant strain, read-out: MIC): 1 µg/mL (≈ 1.39 µM); MIC ([17]; broth-dilution microtiter, Pasteurella multocida 60A, avian isolate, read-out: MIC): 0.78 µg/mL (≈ 1.08 µM); MIC ([20]; broth-dilution microtiter, Pasteurella multocida 17E, bovine isolate, read-out: MIC): 0.78 µg/mL (≈ 1.08 µM); MIC ([21]; broth-dilution microtiter, Mycoplasma gallisepticum 36H, read-out: MIC): 0.78 µg/mL (≈ 1.08 µM); MIC ([22]; broth-dilution microtiter, Mycoplasma gallisepticum 15E, read-out: MIC): 0.39 µg/mL (≈ 0.542 µM); MIC ([28]; broth-dilution microtiter, Mycoplasma hyopneumoniae S5972, read-out: MIC): < 0.024 µg/mL; MIC ([31]; Pasteurella, 22C): 3.12 µg/mL (≈ 4.34 µM); MIC [32]: 1.56 µg/mL (≈ 2.17 µM); MIC ([33]; broth-dilution microtiter, Staphylococcus aureus 19C, read-out: MIC): 1.56 µg/mL (≈ 2.17 µM) |
| CCC1OC(=O)CC(O)C(C)C(OC2OC(C)C(O)C(N(C)C)C2O)C(CC=O)CC(C)C(=O)C=CC(C)=CC1CN1CC2CCC(CC2)C1 (centres unmarked) [Compound 17, 23-(3-azabicyclo[3.2.2]nonan-3-yl)-OMT] | 2.31 mg/kg | 10/10 | 0.06 µg/mL (≈ 0.0851 µM) | 0.5 µg/mL (≈ 0.709 µM) | 0.5 µg/mL (≈ 0.709 µM) | 0.5 µg/mL (≈ 0.709 µM) | 0.5 µg/mL (≈ 0.709 µM) | 0.5 µg/mL (≈ 0.709 µM) | 1 µg/mL (≈ 1.42 µM) | > 100 mg/kg | > 10 mg/kg | 0.39 µg/mL (≈ 0.553 µM) | 6.25 µg/mL (≈ 8.87 µM) | 0.39 µg/mL (≈ 0.553 µM) | < 0.048 µg/mL | 0.39 µg/mL (≈ 0.553 µM) | 0.39 µg/mL (≈ 0.553 µM) | 0.39 µg/mL (≈ 0.553 µM) | < 0.048 µg/mL | 0.39 µg/mL (≈ 0.553 µM) | MIC ([5]; Staphylococcus aureus, X400): 0.5 µg/mL (≈ 0.709 µM); MIC ([6]; Staphylococcus epidermidis, 222): 0.25 µg/mL (≈ 0.355 µM); MIC ([7]; Haemophilus influenzae): 2 µg/mL (≈ 2.84 µM); MIC ([10]; Streptococcus pyogenes, C203): 0.25 µg/mL (≈ 0.355 µM); MIC ([14]; Haemophilus influenzae, 76): 2 µg/mL (≈ 2.84 µM); ED50 ([15]; sc, subcutaneous, read-out: ED50 Subcutaneous): 9.09 mg/kg; ED50 Subcutaneous ([15]; subcutaneous): > 10 mg/kg × 2; MIC ([17]; Pasteurella multocida, 60A): 0.78 µg/mL (≈ 1.11 µM); MIC ([20]; Pasteurella multocida, 17E): 0.78 µg/mL (≈ 1.11 µM); MIC ([21]; 36H): 50 µg/mL (≈ 70.9 µM); MIC ([22]; 15E): 50 µg/mL (≈ 70.9 µM); MIC ([28]; S5972): 0.048 µg/mL (≈ 0.0681 µM); MIC ([31]; broth-dilution microtiter, Pasteurella hemolytica 22C, read-out: MIC): 0.39 µg/mL (≈ 0.553 µM); MIC [32]: 0.39 µg/mL (≈ 0.553 µM); MIC ([33]; Staphylococcus aureus, 19C): 0.78 µg/mL (≈ 1.11 µM) |
